# Results reported in patent US8211935B2, “Heterocyclic derivatives for modulation of calcium channels” (Vertex Pharmaceuticals Incorporated, priority 2004, dated 2012).
# Target: T1, CaV2.2 (Homo sapiens, UniProt Q00975)
# T1 construct: expressed in transfected cells; host or cells: HEK293
# Test: VIPR optical membrane potential assay with electrical stimulation
# Assay type: cell-based
# Settings: not given
# Procedure: Antagonist properties of test compounds were assessed as follows. Cells expressing the CaV of interest were placed into microtiter plates. After an incubation period, the cells were stained with fluorescent dyes sensitive to the transmembrane potential. The test compounds were added to the microtiter plate. The cells were stimulated with electrical means to evoke a CaV dependent membrane potential change from unblocked channels, which was detected and measured with trans-membrane potential-sensitive dyes. Antagonists were detected as a decreased membrane potential response to the stimulus.
# VIPR® Optical Membrane Potential Assay Method with Electrical Stimulation
# The following is an example of how CaV2.2 inhibition activity is measured using the optical membrane potential method. Other subtypes are performed in an analogous mode in a cell line expressing the CaV of interest.
# HEK293 cells stably expressing CaV2.2 are plated into 96-well microtiter plates. After an appropriate incubation period, the cells are stained with the voltage sensitive dyes CC2-DMPE/DiSBAC2(3) as follows.
# 2×CC2-DMPE=20 μM CC2-DMPE: 10 mM CC2-DMPE is vortexed with an equivalent volume of 10% Pluronic, followed by vortexing in required amount of HBSS containing 10 mM HEPES. Each cell plate will require 5 mL of 2×CC2-DMPE. 50 μL of 2×CC2-DMPE is added to wells containing washed cells, resulting in a 10 μM final staining concentration. The cells are stained for 30 minutes in the dark at RT.
# Vortex in required amount of Bath X with beta-cyclodextrin. Each 96 well cell plate will require 5 ml of 2×CC2DMPE. Wash plate with ELx405 with Bath X, leaving a residual volume of 50 μL/well. Add 50 μL of 2×CC2DMPE & DISBAC6(3) to each well. Stain for 30 minutes in the dark at RT.
# Allow solution to sit for 10 minutes. Slowly mix in 370 mM BaCl2. This solution can be used to solvate compound plates. Note that compound plates are made at 1.5× drug concentration and not the usual 2×. Wash CC2 stained plate, again, leaving residual volume of 50 pt. Add 100 uL/well of the AY17 solution. Stain for 15 minutes in the dark at RT. Run plate on the optical reader.
# The instrument comprises a microtiter plate handler, an optical system for exciting the coumarin dye while simultaneously recording the coumarin and oxonol emissions, a waveform generator, a current- or voltage-controlled amplifier, and a device for inserting electrodes in well. Under integrated computer control, this instrument passes user-programmed electrical stimulus protocols to cells within the wells of the microtiter plate.
# Insert or use electrodes into each well to be assayed.
# Use the current-controlled amplifier to deliver stimulation wave pulses for 3-5 s. Two seconds of pre-stimulus recording are performed to obtain the un-stimulated intensities. Five seconds of post-stimulation recording are performed to examine the relaxation to the resting state.
# Data are analyzed and reported as normalized ratios of background-subtracted emission intensities measured in the 460 nm and 580 nm channels. Background intensities are then subtracted from each assay channel. Background intensities are obtained by measuring the emission intensities during the same time periods from identically treated assay wells in which there are no cells. The response as a function of time is then reported as the ratios obtained using the following formula: […]
# The data is further reduced by calculating the initial (Ri) and final (Rf) ratios. These are the average ratio values during part or all of the pre-stimulation period, and during sample points during the stimulation period. The response to the stimulus R=Rf/Ri is then calculated.
# Control responses are obtained by performing assays in the presence of a compound with the desired properties (positive control), such as mibefradil, and in the absence of pharmacological agents (negative control). Responses to the negative (N) and positive (P) controls are calculated as above.
# T1 sequence (Q00975 whole entry): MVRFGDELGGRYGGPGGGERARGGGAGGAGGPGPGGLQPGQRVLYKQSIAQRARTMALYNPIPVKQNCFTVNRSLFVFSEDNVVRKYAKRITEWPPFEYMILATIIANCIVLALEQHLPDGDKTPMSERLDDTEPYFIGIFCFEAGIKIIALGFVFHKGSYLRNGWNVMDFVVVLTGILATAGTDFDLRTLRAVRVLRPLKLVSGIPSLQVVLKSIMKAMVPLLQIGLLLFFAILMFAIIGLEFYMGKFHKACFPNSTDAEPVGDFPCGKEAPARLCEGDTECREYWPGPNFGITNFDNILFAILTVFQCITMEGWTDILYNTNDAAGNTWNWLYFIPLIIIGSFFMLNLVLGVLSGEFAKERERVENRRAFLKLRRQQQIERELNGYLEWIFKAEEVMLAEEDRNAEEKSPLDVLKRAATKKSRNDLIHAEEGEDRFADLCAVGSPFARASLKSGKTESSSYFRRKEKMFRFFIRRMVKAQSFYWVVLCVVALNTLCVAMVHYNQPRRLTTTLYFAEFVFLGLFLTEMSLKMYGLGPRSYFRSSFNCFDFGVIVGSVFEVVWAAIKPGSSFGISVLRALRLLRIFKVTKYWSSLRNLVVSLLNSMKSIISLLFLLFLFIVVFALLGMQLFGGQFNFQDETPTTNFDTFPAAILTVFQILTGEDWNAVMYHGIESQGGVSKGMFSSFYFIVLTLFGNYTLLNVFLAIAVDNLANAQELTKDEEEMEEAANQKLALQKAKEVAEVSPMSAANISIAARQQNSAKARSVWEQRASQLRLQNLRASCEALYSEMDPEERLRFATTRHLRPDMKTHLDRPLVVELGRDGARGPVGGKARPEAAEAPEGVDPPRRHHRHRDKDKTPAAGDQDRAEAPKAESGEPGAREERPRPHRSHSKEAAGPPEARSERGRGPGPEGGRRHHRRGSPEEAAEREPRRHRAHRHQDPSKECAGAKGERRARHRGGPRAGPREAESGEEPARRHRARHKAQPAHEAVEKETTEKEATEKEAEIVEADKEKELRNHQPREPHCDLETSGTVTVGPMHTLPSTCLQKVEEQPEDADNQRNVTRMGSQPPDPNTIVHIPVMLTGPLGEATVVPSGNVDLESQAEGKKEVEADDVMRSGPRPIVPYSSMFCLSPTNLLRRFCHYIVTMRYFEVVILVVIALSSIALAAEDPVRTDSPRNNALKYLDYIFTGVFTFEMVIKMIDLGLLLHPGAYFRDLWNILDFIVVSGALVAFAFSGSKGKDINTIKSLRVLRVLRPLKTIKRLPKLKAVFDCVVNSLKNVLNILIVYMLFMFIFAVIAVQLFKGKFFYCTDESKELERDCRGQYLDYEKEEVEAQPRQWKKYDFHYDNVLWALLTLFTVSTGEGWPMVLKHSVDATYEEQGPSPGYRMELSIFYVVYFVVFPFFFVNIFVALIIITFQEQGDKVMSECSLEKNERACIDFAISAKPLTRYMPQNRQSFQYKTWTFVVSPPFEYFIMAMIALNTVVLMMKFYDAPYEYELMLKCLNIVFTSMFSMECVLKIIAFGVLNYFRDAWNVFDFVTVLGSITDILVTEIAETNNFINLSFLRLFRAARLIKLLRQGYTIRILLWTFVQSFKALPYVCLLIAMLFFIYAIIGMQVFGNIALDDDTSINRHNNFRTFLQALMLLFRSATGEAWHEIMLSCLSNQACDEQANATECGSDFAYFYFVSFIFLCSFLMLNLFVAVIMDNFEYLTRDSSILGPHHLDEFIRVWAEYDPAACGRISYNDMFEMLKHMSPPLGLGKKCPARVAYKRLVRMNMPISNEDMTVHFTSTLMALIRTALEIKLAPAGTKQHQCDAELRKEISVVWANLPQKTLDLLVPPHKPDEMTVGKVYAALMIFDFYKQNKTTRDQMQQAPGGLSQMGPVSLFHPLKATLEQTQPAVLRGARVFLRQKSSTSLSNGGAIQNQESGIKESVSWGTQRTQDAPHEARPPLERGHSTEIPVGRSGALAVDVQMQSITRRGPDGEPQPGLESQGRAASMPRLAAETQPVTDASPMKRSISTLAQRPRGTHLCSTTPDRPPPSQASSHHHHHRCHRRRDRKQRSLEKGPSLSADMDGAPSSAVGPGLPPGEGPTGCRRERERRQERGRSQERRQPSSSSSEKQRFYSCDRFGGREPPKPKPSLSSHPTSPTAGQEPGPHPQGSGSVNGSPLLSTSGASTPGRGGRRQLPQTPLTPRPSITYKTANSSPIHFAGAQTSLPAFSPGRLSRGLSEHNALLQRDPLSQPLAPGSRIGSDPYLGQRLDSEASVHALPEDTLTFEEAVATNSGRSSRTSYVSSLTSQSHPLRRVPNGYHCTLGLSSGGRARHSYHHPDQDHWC
# T1 sequence (P54284 whole entry partner): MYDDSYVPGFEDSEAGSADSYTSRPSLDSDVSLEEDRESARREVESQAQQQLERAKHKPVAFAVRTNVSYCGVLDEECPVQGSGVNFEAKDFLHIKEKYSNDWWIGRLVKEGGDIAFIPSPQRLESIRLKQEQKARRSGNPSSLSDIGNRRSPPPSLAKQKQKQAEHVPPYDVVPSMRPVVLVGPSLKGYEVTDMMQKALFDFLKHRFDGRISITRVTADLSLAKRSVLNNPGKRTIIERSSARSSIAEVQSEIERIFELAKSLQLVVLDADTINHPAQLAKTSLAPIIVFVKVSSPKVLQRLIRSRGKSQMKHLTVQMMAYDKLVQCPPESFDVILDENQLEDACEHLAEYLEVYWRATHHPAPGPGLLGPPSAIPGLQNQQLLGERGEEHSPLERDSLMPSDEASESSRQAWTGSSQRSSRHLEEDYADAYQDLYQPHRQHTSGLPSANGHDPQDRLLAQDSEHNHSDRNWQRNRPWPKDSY
# T1 sequence (P54289 25-946 partner limits assumed): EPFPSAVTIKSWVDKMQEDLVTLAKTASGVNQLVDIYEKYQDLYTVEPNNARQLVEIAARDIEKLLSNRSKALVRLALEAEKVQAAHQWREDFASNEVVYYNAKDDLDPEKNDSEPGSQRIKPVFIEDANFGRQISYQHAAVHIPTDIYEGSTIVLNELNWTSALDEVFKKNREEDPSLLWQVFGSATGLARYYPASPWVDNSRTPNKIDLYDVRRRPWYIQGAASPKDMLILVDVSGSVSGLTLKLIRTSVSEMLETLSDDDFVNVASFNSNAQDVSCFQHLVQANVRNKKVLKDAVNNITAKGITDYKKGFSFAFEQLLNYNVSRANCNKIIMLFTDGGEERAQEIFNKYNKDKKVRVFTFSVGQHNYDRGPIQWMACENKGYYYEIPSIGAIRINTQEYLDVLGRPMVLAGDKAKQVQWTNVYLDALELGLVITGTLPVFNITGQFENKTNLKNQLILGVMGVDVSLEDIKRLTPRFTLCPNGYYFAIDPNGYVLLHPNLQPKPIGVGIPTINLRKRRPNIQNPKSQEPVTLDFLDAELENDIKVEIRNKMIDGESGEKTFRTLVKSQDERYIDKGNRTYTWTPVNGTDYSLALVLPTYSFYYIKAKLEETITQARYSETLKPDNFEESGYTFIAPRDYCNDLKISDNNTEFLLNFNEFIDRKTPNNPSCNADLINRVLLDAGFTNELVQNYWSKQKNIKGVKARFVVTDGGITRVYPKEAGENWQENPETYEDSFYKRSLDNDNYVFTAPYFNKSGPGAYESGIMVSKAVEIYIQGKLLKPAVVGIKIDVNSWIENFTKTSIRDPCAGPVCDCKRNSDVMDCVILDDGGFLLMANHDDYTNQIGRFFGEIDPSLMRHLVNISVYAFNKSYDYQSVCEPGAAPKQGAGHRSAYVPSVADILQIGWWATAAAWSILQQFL
# T1 sequence (P54289 947-1103 partner limits assumed): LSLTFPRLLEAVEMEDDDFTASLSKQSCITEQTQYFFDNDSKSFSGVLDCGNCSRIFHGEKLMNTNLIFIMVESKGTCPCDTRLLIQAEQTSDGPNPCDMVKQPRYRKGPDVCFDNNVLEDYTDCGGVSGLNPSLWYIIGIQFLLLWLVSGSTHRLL
row,Compound,IC50 [µM]
1,Cc1c(C(=O)N(C)Cc2ccccc2)oc2ccc(S(=O)(=O)N3CC(C)CC(C)C3)cc12 (centres unmarked) [compound 89],< 5
2,CC1CCN(S(=O)(=O)c2ccc3oc(C(=O)N4CCC5(CC4)OCCO5)cc3c2)CC1 [compound 106],< 20

# Same assay, conditions: Table 3, biological assay data; read-out: IC50
row,Compound,IC50 [µM]
1,Cc1c(C(=O)N2CCCCC2)oc2ccc(S(=O)(=O)N3CCCCC3)cc12 [compound 64],5 to 20
2,Cc1c(C(=O)N2CCCCC2)oc2ccc(S(=O)(=O)N3CCOCC3)cc12 [compound 65],< 20
3,O=C(NC1CC1)c1cc2cc(N(Cc3ccccc3)S(=O)(=O)c3ccccc3)ccc2[nH]1 [compound 66],5 to 20
4,CC(C)N(C(=O)c1cc2cc(S(=O)(=O)N3CCCCCC3)ccc2o1)C(C)C [compound 67],< 5
5,Cc1c(C(=O)NCC2CCCO2)[nH]c2ccc(S(=O)(=O)N3CCCCCC3)cc12 (centres unmarked) [compound 68],5 to 20
6,Cc1c(C(=O)N2CCCCC2)[nH]c2ccc(S(=O)(=O)N3CCCCCC3)cc12 [compound 69],5 to 20
7,CCN1CCN(C(=O)c2oc3ccc(S(=O)(=O)N4CCCCCC4)cc3c2C)CC1 [compound 70],5 to 20
8,O=C(NC1CC1)c1cc2cc(NS(=O)(=O)C3CC3)ccc2[nH]1 [compound 71],< 20
9,CCOC(=O)N1CCN(C(=O)c2cc3cc(S(=O)(=O)N4CCCCCC4)ccc3[nH]2)CC1 [compound 72],5 to 20
10,Cc1c(C(=O)NCc2ccccn2)oc2ccc(S(=O)(=O)N3CC(C)CC(C)C3)cc12 (centres unmarked) [compound 73],< 20
11,Cc1c(C(=O)N2CCCCC2)[nH]c2ccc(S(=O)(=O)N3CCC(C)CC3)cc12 [compound 74],< 5
12,Cc1c(C(=O)NC2CCCCC2)oc2ccc(S(=O)(=O)N3CCOCC3)cc12 [compound 75],< 20
13,COc1ccccc1CNC(=O)c1oc2ccc(S(=O)(=O)N3CCCCC3)cc2c1C [compound 76],5 to 20
14,CCNC(=O)c1cc2cc(S(=O)(=O)N3CCCCCC3)ccc2[nH]1 [compound 77],< 5
15,Cc1c(C(=O)NCCC2CCOCC2)[nH]c2ccc(S(=O)(=O)N3CC(C)CC(C)C3)cc12 (centres unmarked) [compound 78],5 to 20
16,Cc1c(C(=O)NCCCN2CCOCC2)oc2ccc(S(=O)(=O)N3CC(C)CC(C)C3)cc12 (centres unmarked) [compound 79],< 5
17,Cc1c(C(=O)NCC2CCCCC2)oc2ccc(S(=O)(=O)N3CCC(C)CC3)cc12 [compound 80],5 to 20
18,Cc1c(C(=O)N2CCCC(C)C2)[nH]c2ccc(S(=O)(=O)N3CCC(C)CC3)cc12 (centres unmarked) [compound 81],< 5
19,CC1CC(C)CN(S(=O)(=O)c2ccc3oc(C(=O)N4CCN(C)CC4)cc3c2)C1 (centres unmarked) [compound 82],5 to 20
20,CCCCN(C)C(=O)c1cc2cc(S(=O)(=O)N3CCC(C)CC3)ccc2o1 [compound 83],< 5

row,Compound,IC50 [µM]
1,CCOC(=O)N1CCN(C(=O)c2cc3cc(S(=O)(=O)N4CCC(C)CC4)ccc3[nH]2)CC1 [compound 84],< 5
2,CCN(CC)S(=O)(=O)c1ccc2oc(C(=O)N3CCc4ccccc4C3)c(C)c2c1 [compound 85],< 5
3,Cc1ccc(CNC(=O)c2oc3ccc(S(=O)(=O)N4CCCC4)cc3c2C)cc1 [compound 86],5 to 20
4,CCN(CC)S(=O)(=O)c1ccc2oc(C(=O)NC3CCCC3)c(C)c2c1 [compound 87],< 5
5,CCOC(=O)N1CCN(C(=O)c2oc3ccc(S(=O)(=O)N4CCC(C)CC4)cc3c2C)CC1 [compound 88],< 5
6,CC1CCN(S(=O)(=O)c2ccc3oc(C(=O)NCCCc4ccccc4)cc3c2)CC1 [compound 90],< 5
7,CC1CC(C)CN(S(=O)(=O)c2ccc3[nH]c(C(=O)N4CCN(C)CC4)cc3c2)C1 (centres unmarked) [compound 91],5 to 20
8,CCN(CC)C(=O)c1oc2ccc(S(=O)(=O)N3CCCCCC3)cc2c1C [compound 92],5 to 20
9,Cc1c(C(=O)N(C)Cc2ccccc2)oc2ccc(S(=O)(=O)N3CCCCC3)cc12 [compound 93],< 5
10,Cc1c(C(=O)NCCCc2ccccc2)oc2ccc(S(=O)(=O)N3CCCCCC3)cc12 [compound 94],5 to 20
11,CCCCN(C)C(=O)c1oc2ccc(S(=O)(=O)N(CC)CC)cc2c1C [compound 95],5 to 20
12,O=C(c1cc2cc(S(=O)(=O)N3CCCCCC3)ccc2o1)N1CCCCC1 [compound 96],5 to 20
13,CC1CCN(S(=O)(=O)c2ccc3oc(C(=O)NCCc4ccccc4)cc3c2)CC1 [compound 97],5 to 20
14,CC1CCN(S(=O)(=O)c2ccc3[nH]c(C(=O)NCCCc4ccccc4)cc3c2)CC1 [compound 98],< 5
15,CC1CC(C)CN(S(=O)(=O)c2ccc3oc(C(=O)N4CCCCC4)cc3c2)C1 (centres unmarked) [compound 100],< 5
16,CC1CCN(S(=O)(=O)c2ccc3[nH]c(C(=O)N4CCCC(C)C4)cc3c2)CC1 (centres unmarked) [compound 101],< 5
17,Cc1c(C(=O)N2CCCC(C)C2)oc2ccc(S(=O)(=O)N3CCCCCC3)cc12 (centres unmarked) [compound 102],< 5
18,Cc1c(C(=O)N2CCC(C)CC2)[nH]c2ccc(S(=O)(=O)N3CC(C)CC(C)C3)cc12 (centres unmarked) [compound 103],< 5
19,CC1CCN(S(=O)(=O)c2ccc3[nH]c(C(=O)N4CCCC4)cc3c2)CC1 [compound 104],5 to 20
20,O=C(NC1CC1)c1cc2cc(N(CC3CC3)S(=O)(=O)c3ccccc3)ccc2[nH]1 [compound 105],5 to 20

row,Compound,IC50 [µM]
1,CC1CC(C)CN(S(=O)(=O)c2ccc3c(c2)cc(C(=O)N2CCCCC2)n3S(=O)(=O)c2ccc(F)cc2)C1 (centres unmarked) [compound 107],< 5
2,CC1CCN(S(=O)(=O)c2ccc3[nH]c(CNC4CC4)cc3c2)CC1 [compound 108],< 5
3,Cc1c(C(=O)NC2CCCc3ccccc32)oc2ccc(S(=O)(=O)N3CCOCC3)cc12 (centres unmarked) [compound 109],< 20
4,Cc1c(C(=O)NC(C)C)oc2ccc(S(=O)(=O)N3CCCCCC3)cc12 [compound 110],5 to 20
5,CC1CCN(S(=O)(=O)c2ccc3oc(C(=O)NCC4CCOCC4)cc3c2)CC1 [compound 111],5 to 20
6,CCN(CC)S(=O)(=O)c1ccc2oc(C(=O)N3CCCCC3C)c(C)c2c1 (centres unmarked) [compound 112],5 to 20
7,CCCCN(C)C(=O)c1cc2cc(S(=O)(=O)N3CCCCCC3)ccc2o1 [compound 113],< 5
8,Cc1c(C(=O)NCCN2CCOCC2)oc2ccc(S(=O)(=O)N3CCCCCC3)cc12 [compound 114],5 to 20
9,COc1ccc(NS(=O)(=O)c2ccc3oc(C(=O)NC4CC4)c(C)c3c2)cc1 [compound 115],5 to 20
10,Cc1c(C(=O)NC(C)C)[nH]c2ccc(S(=O)(=O)N3CCC(C)CC3)cc12 [compound 116],5 to 20
11,CCCCN(C)C(=O)c1[nH]c2ccc(S(=O)(=O)N3CCC(C)CC3)cc2c1C [compound 117],< 5
12,Cc1c(C(=O)NCc2ccccc2)oc2ccc(S(=O)(=O)N3CCC4(CC3)OCCO4)cc12 [compound 118],< 20
13,CC1CCN(S(=O)(=O)c2ccc3oc(C(=O)NC4CCCC4)cc3c2)CC1 [compound 119],< 5
14,Cc1c(C(=O)NCc2ccccc2)[nH]c2ccc(S(=O)(=O)N3CCC(C)CC3)cc12 [compound 120],< 5
15,CC1CCN(S(=O)(=O)c2ccc3[nH]c(CN4CCN(C)CC4)cc3c2)CC1 [compound 121],5 to 20
16,CC1CC(C)CN(S(=O)(=O)c2ccc3oc(C(=O)NC4CCCC4)cc3c2)C1 (centres unmarked) [compound 122],< 5
17,Cc1c(C(=O)NC2CCCCC2C)oc2ccc(S(=O)(=O)N3CCOCC3)cc12 (centres unmarked) [compound 123],5 to 20
18,Cc1c(C(=O)N2CC(C)CC(C)C2)oc2ccc(S(=O)(=O)N3CCCCC3)cc12 (centres unmarked) [compound 124],5 to 20
19,CC1CC(C)CN(S(=O)(=O)c2ccc3[nH]c(C(=O)N4CCCCCC4)cc3c2)C1 (centres unmarked) [compound 126],< 5
20,Cc1c(C(=O)N2CC(C)CC(C)C2)[nH]c2ccc(S(=O)(=O)N3CCC(C)CC3)cc12 (centres unmarked) [compound 127],5 to 20
